Laboratory results as given in patent US20230099344A1, “COMPOUNDS AND METHODS FOR THE TARGETED DEGRADATION OF IRAK-4” (Arvinas Operations, Inc., priority 2021, published 2023).

Experiments:
Format in all cases: cell-based
[1] = tested on: IL8; experiment: IL-1β stimulated IL8 inhibition assay in PBMC; details: human PBMCs, IL-1β stimulation, compound overnight, IL8 by MSD after 24 hrs; for IC50: read-out: IL1β stim IL8 inhibition IC50; for Emax: read-out: IL1β stim IL8 inhibition Ymax
Protocol: (§1) IL-1β, LPS, or R848 Stimulated IL6 Inhibition and IL-1β Stimulated IL8 Inhibition Assay
(§2) Human PBMC cells were seeded at 2.0×10^6 cells/mL, treated with compound overnight, and dosed with the EC50 concentration of each stimulant (either IL-1B. LPS, or R848) was determined for each donor. After 24 hrs, media was collected and analyzed by MSD for IL6 and/or IL8 levels.

[2] = target: T1, IRAK-4 (Homo sapiens, UniProt Q9NWZ3); experiment: IRAK-4 ELISA, PBMC degradation; set-up: endogenous in cells; host or cells: PBMC; details: treated overnight
T1 sequence (Q9NWZ3 1-460): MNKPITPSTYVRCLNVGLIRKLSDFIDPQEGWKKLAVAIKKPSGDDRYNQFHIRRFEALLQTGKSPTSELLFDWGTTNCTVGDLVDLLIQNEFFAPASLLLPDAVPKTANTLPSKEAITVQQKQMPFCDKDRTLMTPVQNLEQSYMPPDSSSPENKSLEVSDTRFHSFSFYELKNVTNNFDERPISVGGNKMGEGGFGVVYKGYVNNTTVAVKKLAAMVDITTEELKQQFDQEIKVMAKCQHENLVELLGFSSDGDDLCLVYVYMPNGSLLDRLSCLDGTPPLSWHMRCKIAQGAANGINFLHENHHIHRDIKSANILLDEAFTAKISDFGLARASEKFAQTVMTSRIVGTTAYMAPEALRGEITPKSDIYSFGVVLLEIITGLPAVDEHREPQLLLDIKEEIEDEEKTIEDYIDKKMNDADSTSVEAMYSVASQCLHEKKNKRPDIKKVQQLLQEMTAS
How it was run: (§3)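 Overnight compound treatment, started on the day of plating, of OCI-Ly10 (1×10^6/ml) and PBMC (2×10^6/ml) cultures. Lysates are collected and IRAK-4 content is read by sandwich ELISA.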

[3] = tested on: IL6; experiment: IL-1β stimulated IL6 inhibition assay in PBMC; details: PBMC, human PBMCs, IL-1β stimulation, compound overnight, IL6 by MSD after 24 hrs; for IC50: Homo sapiens, 24 h, read-out: IL1β stim IL6 inhibition IC50; for Emax: read-out: IL1β stim IL6 inhibition Ymax
Protocol: as §1, §2

[4] = target: T1, IRAK-4; experiment: IRAK-4 ELISA, OCI-Ly10 degradation; set-up: endogenous in cells; details: treated overnight; for Dmax: OCI-Ly10, OCI-Ly10 cells; for DC50: OCI-Ly10 cells
How it was run: as §3

## COc1c(N2CC(CN3CCC(n4cc5cc(NC(=O)c6cnn7cccnc67)c(OCC6CC6)cc5n4)CC3)C2)ccc2c1C(=O)N(C1CCC(=O)NC1=O)C2=O (centres unmarked) [Example 285, N-(6-(cyclopropylmethoxy)-2-(1-((1-(2-(2,6-dioxopiperidin-3-yl)-4-methoxy-1,3-dioxoisoindolin-5-yl)azetidin-3-yl)methyl)piperidin-4-yl)-2H-indazol-5-yl)pyrazolo[1,5-a]pyrimidine-3-carboxamide]
[1]
  IC50: 10 to 50 nM
  Emax: < 70%
[2]
  DC50: 1 to 5 nM
  Dmax: 80 to 90%
  PBMC DC90: A (A represents a DC90 value <10.0 nM)
[3]
  IC50: < 10 nM
  Emax: 80 to 90%
[4]
  Dmax: ≥ 90%
  DC50: < 10 nM

## O=C1CCC(NC(=O)c2ccc(N3CC(CN4CCC(n5cc6cc(NC(=O)c7cnn8cccnc78)c(OCC7CC7)cc6n5)CC4)C3)cc2F)C(=O)N1 (centres unmarked) [Example 287]
[1]
  IC50: ≥ 100 nM
  Emax: < 70%
[2]
  DC50: 1 to 5 nM
  Dmax: ≥ 90%
  PBMC DC90: B (B represents a DC90 value ≥10.0 nM and <25.0 nM)
[3]
  IC50: 50 to 100 nM
  Emax: ≥ 90%
[4]
  Dmax: ≥ 90%
  DC50: < 10 nM

## O=C1CCC(NC(=O)c2ccc(N3CCC(CN4CCC(n5cc6cc(NC(=O)c7cnn8cccnc78)c(OCC7CC7)cc6n5)CC4)CC3)cc2F)C(=O)N1 (centres unmarked) [Example 288]
[1]
  IC50: 50 to 100 nM
  Emax: 70 to 80%
[2]
  DC50: < 1 nM
  Dmax: ≥ 90%
  PBMC DC90: A (A represents a DC90 value <10.0 nM)
[3]
  IC50: 10 to 50 nM
  Emax: ≥ 90%
[4]
  Dmax: ≥ 90%
  DC50: < 10 nM

## COc1cc2nn([C@H]3CC[C@H](N(C)C4CN(c5ccc6c(c5)C(=O)N(C5CCC(=O)NC5=O)C6=O)C4)CC3)cc2cc1NC(=O)c1cnn2cccnc12 (some centres unmarked) [Example 334]
[1]
  IC50: 10 to 50 nM
  Emax: < 70%
[2]
  DC50: < 1 nM
  Dmax: ≥ 90%
  PBMC DC90: A (A represents a DC90 value <10.0 nM)
[3]
  IC50: < 10 nM
  Emax: ≥ 90%
[4]
  Dmax: ≥ 90%
  DC50: < 10 nM

## COc1cc2nn([C@H]3CC[C@H](N(C)C4CCN(c5ccc6c(c5)C(=O)N(C5CCC(=O)NC5=O)C6=O)CC4)CC3)cc2cc1NC(=O)c1cnn2cccnc12 (some centres unmarked) [Example 335]
[1]
  IC50: ≥ 100 nM
[2]
  DC50: < 1 nM
  Dmax: ≥ 90%
  PBMC DC90: A (A represents a DC90 value <10.0 nM)
[3]
  IC50: < 10 nM
  Emax: ≥ 90%
[4]
  Dmax: ≥ 90%
  DC50: < 10 nM

## COc1cc2nn([C@H]3CC[C@H](N(C)C4CN(c5ccc6c(c5)CN(C5CCC(=O)NC5=O)C6=O)C4)CC3)cc2cc1NC(=O)c1cnn2cccnc12 (some centres unmarked) [Example 337]
[1]
  IC50: < 10 nM
  Emax: < 70%
[2]
  DC50: 1 to 5 nM
  Dmax: ≥ 90%
  PBMC DC90: A (A represents a DC90 value <10.0 nM)
[3]
  IC50: < 10 nM
  Emax: ≥ 90%
[4]
  Dmax: ≥ 90%
  DC50: < 10 nM

## COc1cc2nn([C@H]3CC[C@H](N(C)CC#Cc4ccc5c(c4)C(=O)N(C4CCC(=O)NC4=O)C5=O)CC3)cc2cc1NC(=O)c1cnn2cccnc12 (some centres unmarked) [Example 338]
[1]
  IC50: 10 to 50 nM
  Emax: < 70%
[2]
  DC50: < 1 nM
  Dmax: ≥ 90%
  PBMC DC90: A (A represents a DC90 value <10.0 nM)
[3]
  IC50: < 10 nM
  Emax: ≥ 90%
[4]
  Dmax: ≥ 90%
  DC50: < 10 nM

## CN(C1CN(c2ccc3c(c2)CN(C2CCC(=O)NC2=O)C3=O)C1)[C@H]1CC[C@H](n2cc3cc(NC(=O)c4cnn5cccnc45)c(OCC4CC4)cc3n2)CC1 (some centres unmarked) [Example 339]
[1]
  IC50: 10 to 50 nM
  Emax: 70 to 80%
[2]
  DC50: < 1 nM
  Dmax: ≥ 90%
  PBMC DC90: A (A represents a DC90 value <10.0 nM)
[3]
  IC50: < 10 nM
  Emax: ≥ 90%
[4]
  Dmax: ≥ 90%
  DC50: < 10 nM

## COc1cc2nn(C3CCN(CC4CN(c5cccc6c5n(C)c(=O)n6C5CCC(=O)NC5=O)C4)CC3)cc2cc1NC(=O)c1cnn2cccnc12 (centres unmarked) [Example 379]
[1]
  IC50: 10 to 50 nM
  Emax: 70 to 80%
[2]
  DC50: < 1 nM
  Dmax: ≥ 90%
  PBMC DC90: A (A represents a DC90 value <10.0 nM)
[3]
  IC50: < 10 nM
  Emax: 80 to 90%
[4]
  Dmax: ≥ 90%
  DC50: < 10 nM
